# According to patent US6692443B2, “Systems and methods for investigating blood flow” (New Health Sciences, Inc., priority 2000, dated 2004):
# Tested on: cerebral vessels
# Protocol: A person with a history of hypertension experiences a first stroke in the left middle cerebral artery resulting in deficits in the right hand, leg, and some deficits in motor speech. These are the symptoms upon presentation in the neurological clinic. Transcranial Doppler analysis of all cerebral vessels is performed in addition to analyzing the common carotid artery and the internal carotid artery.
# The physician considers prescription of Plavix together with a calcium channel blocker. Transcranial Doppler analysis was performed at monthly intervals. […] The physician subsequently administers a higher dose. Again, transcranial Doppler analysis is performed on all cerebral vessels.
compound,measurement,setting,value
COC(=O)[C@H](c1ccccc1Cl)N1CCc2sccc2C1 [Plavix],changes in the individual cerebral vessels (transcranial Doppler),"person after first stroke, Plavix +/− calcium channel blocker, initial dose, analysis at monthly intervals",no effect on the cerebral vessels
same,auto-regulation curve (transcranial Doppler),"same patient, higher dose",left-shifts toward normal
same,pulsatility index of the vessel studied (transcranial Doppler),"same patient, higher dose",decreases
